Where two headings read alike, the source gives them in different places.

Assay in all cases: Test A pre-/postemergence plant response
Assay type in all cases: in vivo

The subject of test [1] is velvetleaf (Abutilon theophrasti). As to conditions: Abutilon theophrasti, 240 h; for pest or weed control at 125 g/ha: 125 g ai/ha; for pest or weed control at 500 g/ha: 500 g ai/ha. The gist of the method:
(§1)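 Formulated test chemicals (non-phytotoxic solvent, surfactant) were sprayed onto soil right after planting and simultaneously onto young plants at one to two leaves, 2 to 10 cm tall. Plants stayed in the greenhouse about ten days; injury was then visually scored against untreated controls, from 0 (no effect) to 100 (complete control).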

Another test deals with corn (Zea mays). The conditions noted are these: Zea mays, 240 h. The gist of the method:
as §1

Test [2] concerns morningglory (Ipomoea spp.). As to conditions: Ipomoea, 240 h; for pest or weed control at 125 g/ha: 125 g ai/ha; for pest or weed control at 500 g/ha: 500 g ai/ha. The gist of the method: as §1
In test [3] the test system is wheat (Triticum aestivum). The conditions noted are these: Triticum aestivum, 240 h; for plant injury at 125 g/ha: 125 g ai/ha; for plant injury at 500 g/ha: 500 g ai/ha. The gist of the method: as §1
Test [4] relates to large crabgrass (Digitaria sanguinalis). As to conditions: Digitaria sanguinalis, 240 h; for pest or weed control at 125 g/ha: 125 g ai/ha; for pest or weed control at 500 g/ha: 500 g ai/ha. The method, boiled down:
as §1

Test [5] has as its system giant foxtail (Setaria faberii). The conditions noted are these: Setaria faberi, 240 h; for pest or weed control at 125 g/ha: 125 g ai/ha; for pest or weed control at 500 g/ha: 500 g ai/ha. The gist of the method:
as §1

Setting [6] is: post-emergence, Postemergence, visual injury, 0 to 100 scale (0 no effect, 100 complete control), approx. ten days, read-out: Velvetleaf plant response rating.
The mark [7] stands for this setting: pre-emergence, Preemergence, 0 to 100 scale, 0 = no effect, 100 = complete control, read-out: Plant response rating, Velvetleaf.
[8] abbreviates: pre-emergence, Preemergence, 125 g ai/ha, 0 to 100 scale, 0 = no effect, 100 = complete control.
Setting [9] is: post-emergence, Postemergence, visual injury, 0 to 100 scale (0 no effect, 100 complete control), approx. ten days, read-out: Morningglory plant response rating.
[10] abbreviates: pre-emergence, Preemergence, 0 to 100 scale, 0 = no effect, 100 = complete control, read-out: Plant response rating, Morningglory.
[11] abbreviates: post-emergence, Postemergence, visual injury, 0 to 100 scale (0 no effect, 100 complete control), approx. ten days, read-out: Wheat plant response rating.
[12] abbreviates: pre-emergence, Preemergence, 0 to 100 scale, 0 = no effect, 100 = complete control, read-out: Plant response rating, Wheat.
The mark [13] stands for this setting: post-emergence, Postemergence, visual injury, 0 to 100 scale (0 no effect, 100 complete control), approx. ten days, read-out: Crabgrass, Large plant response rating.
The mark [14] stands for this setting: pre-emergence, Preemergence, 0 to 100 scale, 0 = no effect, 100 = complete control, read-out: Plant response rating, Crabgrass, Large.
The mark [15] stands for this setting: post-emergence, Postemergence, visual injury, 0 to 100 scale (0 no effect, 100 complete control), approx. ten days, read-out: Foxtail, Giant plant response rating.
[16] abbreviates: pre-emergence, Preemergence, 0 to 100 scale, 0 = no effect, 100 = complete control, read-out: Plant response rating, Foxtail, Giant.

Take `O=C(c1cnoc1C1CC1)c1cnc(-c2ccccc2)n(-c2ccccc2)c1=O` [Compound 223, 5-[(5-cyclopropyl-4-isoxazolyl)-carbonyl]-2,3-diphenyl-4(3H)-pyrimidinone]: the pest or weed control at 125 g/ha worked out at 50% in test [1] (post-emergence, Postemergence, 0 to 100 scale where 0 is no effect and 100 is complete control, read-out: Plant response rating, Velvetleaf); 0% in test [1] (setting [7]); 60% in test [2] (post-emergence, Postemergence, 0 to 100 scale where 0 is no effect and 100 is complete control, read-out: Plant response rating, Morningglory); 10% in test [2] (setting [10]); 0% in test [4] (post-emergence, Postemergence, 0 to 100 scale where 0 is no effect and 100 is complete control, read-out: Plant response rating, Crabgrass, Large); 30% in test [4] (setting [14]). The pest or weed control at 125 g/ha turned out to be 0% in test [5] (post-emergence, Postemergence, 0 to 100 scale where 0 is no effect and 100 is complete control, read-out: Plant response rating, Foxtail, Giant); 30% in test [5] (setting [16]). Moreover, the pest or weed control at 500 g/ha in test [1] (setting [6]) was determined as 80%; in test [1] (setting [7]) it was 60%; in test [2] (setting [9]), 80%; in test [4] (setting [13]), 60%; in test [4] (setting [14]), 80%; in test [5] (setting [15]), 70%. In test [5] (setting [16]), the pest or weed control at 500 g/ha amounted to 90%. In addition, the Corn plant response rating (crop injury, 0 = no effect, 100 = complete kill) at 125 g/ha in the test with corn (Zea mays) (post-emergence, Postemergence, 125 g ai/ha, 0 to 100 scale where 0 is no effect and 100 is complete control) was determined as 0%; with corn (Zea mays) (setting [8]), 0%. Further, the plant injury at 500 g/ha with corn (Zea mays) (post-emergence, Postemergence, 500 g ai/ha, visual injury, 0 to 100 scale (0 no effect, 100 complete control), approx. ten days, read-out: Corn plant response rating) turned out to be 20%; in test [3] (setting [11]) it was 0%; in test [3] (setting [12]) it was 0%. The same compound showed a Corn plant response rating (crop injury, 0 = no effect, 100 = complete kill) at 500 g/ha in the test with corn (Zea mays) (pre-emergence, Preemergence, 500 g ai/ha, 0 to 100 scale, 0 = no effect, 100 = complete control) of 0%. The plant injury at 125 g/ha is 0% in test [3] (post-emergence, Postemergence, 0 to 100 scale where 0 is no effect and 100 is complete control, read-out: Plant response rating, Wheat); 0% in test [3] (setting [12]).
Turning to `CCn1ncc(C(=O)c2cnc(-c3ccccc3)n(Cc3ccccc3)c2=O)c1OS(=O)(=O)c1ccc(C)cc1` [Compound 21, 5-[[1-ethyl-5-[[(4-methylphenyl)sulfonyl]oxy]-1H-pyrazol-4-yl]carbonyl]-2-phenyl-3-(phenylmethyl)-4(3H)-pyrimidinone], the pest or weed control at 125 g/ha in test [1] (setting [6]) stood at 30%; in test [1] (setting [7]), 0%; in test [2] (setting [9]), 0%; in test [2] (setting [10]), 0%; in test [4] (setting [13]), 0%; in test [4] (setting [14]) it was 0%. Further, the pest or weed control at 125 g/ha in test [5] (setting [15]) and in test [5] (setting [16]) was 0% each time. The pest or weed control at 500 g/ha was determined as 70% in test [1] (post-emergence, Postemergence, 0 to 100 scale, 0 = no effect, 100 = complete control, approx. ten days, read-out: Plant response rating, Velvetleaf); 0% in test [1] (pre-emergence, Preemergence, visual injury, 0 to 100 scale (0 no effect, 100 complete control), approx. ten days, read-out: Plant response rating, Velvetleaf); 0% in test [2] (post-emergence, Postemergence, 0 to 100 scale, 0 = no effect, 100 = complete control, approx. ten days, read-out: Plant response rating, Morningglory); 0% in test [2] (pre-emergence, Preemergence, visual injury, 0 to 100 scale (0 no effect, 100 complete control), approx. ten days, read-out: Plant response rating, Morningglory); 10% in test [4] (post-emergence, Postemergence, 0 to 100 scale, 0 = no effect, 100 = complete control, approx. ten days, read-out: Plant response rating, Crabgrass, Large); 20% in test [4] (pre-emergence, Preemergence, visual injury, 0 to 100 scale (0 no effect, 100 complete control), approx. ten days, read-out: Plant response rating, Crabgrass, Large). For the same compound, the pest or weed control at 500 g/ha in test [5] (post-emergence, Postemergence, 0 to 100 scale, 0 = no effect, 100 = complete control, approx. ten days, read-out: Plant response rating, Foxtail, Giant) is 0%; in test [5] (pre-emergence, Preemergence, visual injury, 0 to 100 scale (0 no effect, 100 complete control), approx. ten days, read-out: Plant response rating, Foxtail, Giant), 10%. For the same compound, the plant injury at 125 g/ha in the test on corn (Zea mays) (post-emergence, Postemergence, 125 g ai/ha, visual injury, 0 to 100 scale (0 no effect, 100 complete control), approx. ten days, read-out: Corn plant response rating) turned out to be 0%; in test [3] (setting [11]), 0%; in test [3] (setting [12]) it was 0%. Moreover, the Corn plant response rating (crop injury, 0 = no effect, 100 = complete kill) at 500 g/ha in the test on corn (Zea mays) (post-emergence, Postemergence, 500 g ai/ha, 0 to 100 scale, 0 = no effect, 100 = complete control, approx. ten days) turned out to be 0%; in the test with corn (Zea mays) (pre-emergence, Preemergence, 500 g ai/ha, visual injury, 0 to 100 scale (0 no effect, 100 complete control), approx. ten days), 0%. Moreover, the Corn plant response rating (crop injury, 0 = no effect, 100 = complete kill) at 125 g/ha in the test on corn (Zea mays) (setting [8]) came to 0%. Also, the plant injury at 500 g/ha in test [3] (post-emergence, Postemergence, 0 to 100 scale, 0 = no effect, 100 = complete control, approx. ten days, read-out: Plant response rating, Wheat) was 0%; in test [3] (pre-emergence, Preemergence, visual injury, 0 to 100 scale (0 no effect, 100 complete control), approx. ten days, read-out: Plant response rating, Wheat), 0%.

Values taken from US8952024B2, “Herbicidal pyrimidone derivatives” (E I du Pont de Nemours and Company, priority 2009, dated 2015).
